From patent US9926292B2, “Pyridinyl derivatives, pharmaceutical compositions and uses thereof” (Boehringer Ingelheim International GmbH, priority 2016, dated 2018) come the findings set out here.

Structures are written as SMILES. Like-named read-outs stand apart in the source and are kept apart here.

Broadly, the IC50 is the midpoint of a concentration-inhibition curve.

The target in one experiment is T1, AOC1 (Homo sapiens, UniProt P19801).
T1 construct: purchased R&D Systems 8297-AO-010
T1 sequence (P19801 20-751): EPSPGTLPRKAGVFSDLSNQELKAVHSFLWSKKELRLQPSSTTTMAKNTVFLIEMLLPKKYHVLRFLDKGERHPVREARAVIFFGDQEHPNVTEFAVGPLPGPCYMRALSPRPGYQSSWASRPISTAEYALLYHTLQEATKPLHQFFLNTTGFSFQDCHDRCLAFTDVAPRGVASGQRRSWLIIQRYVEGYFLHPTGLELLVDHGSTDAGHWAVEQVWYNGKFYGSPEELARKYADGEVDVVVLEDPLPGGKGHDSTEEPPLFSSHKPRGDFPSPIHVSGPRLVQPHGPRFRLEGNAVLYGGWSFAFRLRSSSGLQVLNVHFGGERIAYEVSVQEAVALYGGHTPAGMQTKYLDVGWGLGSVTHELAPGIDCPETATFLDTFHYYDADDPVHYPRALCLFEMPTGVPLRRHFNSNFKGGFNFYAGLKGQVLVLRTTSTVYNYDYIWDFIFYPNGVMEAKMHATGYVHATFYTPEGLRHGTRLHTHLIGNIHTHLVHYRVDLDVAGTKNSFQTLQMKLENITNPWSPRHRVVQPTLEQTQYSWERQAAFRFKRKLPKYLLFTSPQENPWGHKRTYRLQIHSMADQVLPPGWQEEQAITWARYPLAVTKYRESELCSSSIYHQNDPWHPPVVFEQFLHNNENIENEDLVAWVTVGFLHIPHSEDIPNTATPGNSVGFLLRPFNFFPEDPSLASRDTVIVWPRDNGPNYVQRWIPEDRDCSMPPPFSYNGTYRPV
The experiment can be described thus: AOC1 biochemical assay (Amplex Red). The text has this: The Amplex® Red Assay (available from Thermo Fisher Scientific) provides a sensitive method for the detection of H2O2 generated during enzymatic reactions like the amine oxidation catalyzed by AOC1.

A further experiment addresses T2, AOC3 (Homo sapiens, UniProt Q16853).
T2 construct: expressed in transfected cells; host or cells: CHO cells
T2 sequence (Q16853 1-763): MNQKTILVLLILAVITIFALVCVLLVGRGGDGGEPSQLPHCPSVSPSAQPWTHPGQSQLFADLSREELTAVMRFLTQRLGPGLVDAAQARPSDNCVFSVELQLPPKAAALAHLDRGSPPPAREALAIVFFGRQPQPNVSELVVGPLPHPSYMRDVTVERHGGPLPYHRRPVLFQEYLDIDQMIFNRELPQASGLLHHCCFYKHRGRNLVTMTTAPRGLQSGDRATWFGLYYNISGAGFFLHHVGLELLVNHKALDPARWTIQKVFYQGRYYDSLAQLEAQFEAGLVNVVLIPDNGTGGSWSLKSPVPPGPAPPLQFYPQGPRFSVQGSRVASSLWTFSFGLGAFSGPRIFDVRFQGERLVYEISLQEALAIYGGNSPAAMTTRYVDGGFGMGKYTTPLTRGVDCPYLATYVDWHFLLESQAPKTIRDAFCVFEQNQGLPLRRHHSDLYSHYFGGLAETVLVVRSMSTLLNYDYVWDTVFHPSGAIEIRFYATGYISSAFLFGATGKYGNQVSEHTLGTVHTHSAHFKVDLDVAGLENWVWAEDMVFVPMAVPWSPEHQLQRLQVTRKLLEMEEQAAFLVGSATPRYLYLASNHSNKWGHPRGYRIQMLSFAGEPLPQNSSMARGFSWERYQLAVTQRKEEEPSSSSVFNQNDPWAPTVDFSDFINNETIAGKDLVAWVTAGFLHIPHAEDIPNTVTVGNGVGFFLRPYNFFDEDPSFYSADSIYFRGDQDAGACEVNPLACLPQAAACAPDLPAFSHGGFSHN
Description: AOC3 biochemical assay (MAO-Glo). Here is the method:
As substrate a derivate of the beetle luciferin ((4S)-4,5-dihydro-2-(6-hydroxybenzothiazolyl)-4-thiazole-carboxylic acid) is used, which is oxidized at a primary amine moiety. After a spontaneous elimination and a catalyzed esterase reaction, the turnover of the luciferine by the luciferase is recorded as a signal of AOC3 activity.
Recombinant CHO cells, overexpressing the human (1500 cells/well), mouse (1000 cells/well) or rat (500 cells/well) AOC3 enzyme are diluted in reaction buffer and added in a volume of 15 μL to the wells. After incubation for 20 minutes at 37° C., 2 μL of MAO substrate (dissolved in DMSO at 16 mM, adjusted to assay concentration in reaction buffer to a final assay concentration of 20 μM) is added and further incubated for 60 minutes at 37° C. The turnover of the substrate is determined by the addition of 20 μL of the detection-mix which was generated by the addition of reconstitution buffer with esterase (PROMEGA, #V1402) to the luciferine detection reagent (PROMEGA, #V1402).

[1] abbreviates: Table 2, comparison with compounds of EP 2 695 881, read-out: IC50 AOC1.
[2] abbreviates: Table 2, comparison with compounds of EP 2 695 881, read-out: IC50 AOC3.

With `CC(=O)N1CCC(COc2ncc(-c3cccc(COC(=O)NC(=N)N)c3F)cn2)CC1` [Ex. 11, p. 221, reference compound], the results for the 50% inhibitory concentration (IC50) on AOC1 (setting [1]) and at AOC3 (setting [2]) were 6 nM and 1 nM, respectively.
Turning to `COC1CN(c2ncc(-c3cccc(COC(=O)NC(=N)N)c3F)cn2)C1` [Ex. 63, p. 227, reference compound], the IC50 on AOC1 (setting [1]) amounted to 100 nM; on AOC3 (setting [2]) it was 1 nM.
The matching figures for `N=C(N)NC(=O)OCc1cccc(-c2cnc(OCC3CCN(C(=O)C4CC4)CC3)nc2)c1F` [Ex. 74, p. 229, reference compound]: 8 nM and 1 nM.
For the compound `N=C(N)NC(=O)OCc1cccc(-c2cnc(N3CCOCC3)nc2)c1F` [Ex. 81, p. 229, reference compound], the values for the IC50 on AOC1 (setting [1]) and at AOC3 (setting [2]) were 174 nM and 1 nM, respectively.
In the same order, the values of `CCOc1ncc(-c2cccc(COC(=O)NC(=N)N)c2F)cn1` [Ex. 136, p. 235, reference compound] are 60 nM and 6 nM.
Regarding `COCCOc1ncc(-c2cccc(COC(=O)NC(=N)N)c2F)cn1` [Ex. 197, p. 243, reference compound], the IC50 on AOC1 (setting [1]) came out at 97 nM; at AOC3 (setting [2]) it was 6 nM.
With `Cc1ncc(-c2cccc(COC(=O)NC(=N)N)n2)cn1` [Example 01], the IC50 was determined as 7600 nM at AOC1 (Table 1, read-out: AOC1 IC50) and 27 nM at AOC3 (Table 1, read-out: AOC3 IC50).
In the same order, the values of `COc1ncc(-c2cccc(COC(=O)NC(=N)N)n2)cn1` [Example 02] are 8070 nM and 10 nM.
In the same order, the values of `N=C(N)NC(=O)OCc1cccc(-c2cnc(C3CC3)nc2)n1` [Example 03, [6-(2-cyclopropylpyrimidin-5-yl)-2-pyridyl]methyl N-carbamimidoylcarbamate] are 8030 nM and 8 nM.
In the same order, the values of `CN(C)c1ncc(-c2cccc(COC(=O)NC(=N)N)n2)cn1` [Example 04] are 1720 nM and 5 nM.
On to `CCOc1ncc(-c2cccc(COC(=O)NC(=N)N)n2)cn1` [Example 05], for which the IC50 came to 2390 nM at AOC1 (Table 1, read-out: AOC1 IC50) and 15 nM at AOC3 (Table 1, read-out: AOC3 IC50).
On to `CSc1ncc(-c2cccc(COC(=O)NC(=N)N)n2)cn1` [Example 06], for which the IC50 was 10200 nM at AOC1 (Table 1, read-out: AOC1 IC50) and 15 nM on AOC3 (Table 1, read-out: AOC3 IC50).
In the same order, the values of `CCCOc1ncc(-c2cccc(COC(=O)NC(=N)N)n2)cn1` [Example 07, [6-(2-propoxypyrimidin-5-yl)-2-pyridyl]methyl N-carbamimidoylcarbamate] are 2010 nM and 5 nM.
For `C#CCCOc1ncc(-c2cccc(COC(=O)NC(=N)N)n2)cn1` [Example 08, [6-(2-but-3-ynoxypyrimidin-5-yl)-2-pyridyl]methyl N-carbamimidoylcarbamate], the IC50 at AOC1 (Table 1, read-out: AOC1 IC50) was found to be 2690 nM; on AOC3 (Table 1, read-out: AOC3 IC50) it was 4 nM.
On to `COCCNc1ncc(-c2cccc(COC(=O)NC(=N)N)n2)cn1` [Example 09], for which the IC50 at AOC1 (Table 1, read-out: AOC1 IC50) was 1410 nM; on AOC3 (Table 1, read-out: AOC3 IC50), 7 nM.
As to `COCCOc1ncc(-c2cccc(COC(=O)NC(=N)N)n2)cn1` [Example 10], the 50% inhibitory concentration (IC50) at AOC1 (Table 1, read-out: AOC1 IC50) stood at 3480 nM; on AOC3 (Table 1, read-out: AOC3 IC50) it was 11 nM.
For the compound `C[C@@H](F)COc1ncc(-c2cccc(COC(=O)NC(=N)N)n2)cn1` [Example 11], the half-inhibitory concentration (IC50) on AOC1 (Table 1, read-out: AOC1 IC50) is 2390 nM; on AOC3 (Table 1, read-out: AOC3 IC50), 5 nM.
With `N=C(N)NC(=O)OCc1cccc(-c2cnc(C3CCOCC3)nc2)n1` [Example 12], the 50% inhibitory concentration (IC50) at AOC1 (Table 1, read-out: AOC1 IC50) amounted to 7530 nM; on AOC3 (Table 1, read-out: AOC3 IC50), 5 nM.
In the case of `COC1CN(c2ncc(-c3cccc(COC(=O)NC(=N)N)n3)cn2)C1` [Example 13], the IC50 on AOC1 (Table 1, read-out: AOC1 IC50) came out at 1480 nM; at AOC3 (Table 1, read-out: AOC3 IC50), 2 nM.
